Results published in patent US8106055B2, “Substituted amide compounds” (Gruenenthal GmbH, priority 2007, dated 2012).

What was measured:
human μ opiate receptor = molecular target: T1, human μ opiate receptor (Homo sapiens, UniProt P35372); experiment: Affinity for the human μ opiate receptor ([3H]-naloxone displacement, CHO-K1 receptor membrane preparation, SPA); assay type: binding; conditions: test concentration of 1 μM
T1 construct: purchased PerkinElmer Life Sciences, Zaventem, Belgium RB-HOM; host or cells: CHO-K1 cells (membrane preparation)
T1 sequence (P35372 whole entry): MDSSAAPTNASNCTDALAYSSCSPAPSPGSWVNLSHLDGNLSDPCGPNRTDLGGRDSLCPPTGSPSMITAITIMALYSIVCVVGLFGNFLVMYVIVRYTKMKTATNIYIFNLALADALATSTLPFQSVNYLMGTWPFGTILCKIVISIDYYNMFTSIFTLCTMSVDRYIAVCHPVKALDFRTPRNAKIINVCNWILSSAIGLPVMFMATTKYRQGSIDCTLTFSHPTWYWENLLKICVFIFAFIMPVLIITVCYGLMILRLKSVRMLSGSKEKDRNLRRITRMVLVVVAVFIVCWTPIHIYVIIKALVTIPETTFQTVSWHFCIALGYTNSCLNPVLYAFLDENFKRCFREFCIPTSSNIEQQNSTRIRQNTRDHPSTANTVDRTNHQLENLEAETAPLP
Outline: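 Test compounds, 1 nmol/l [3H]-naloxone and CHO-K1 membranes bearing the human μ opiate receptor are combined with WGA-SPA beads. After 90 minutes at room temperature, plates are centrifuged and radioactivity counted. Specific-binding inhibition at 1 μmol/l is given in percent.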

[1] = molecular target: T2, serotonin (5-HT) reuptake (Rattus norvegicus, UniProt P31652); experiment: Inhibition of serotonin (5HT) reuptake in synaptosomes from rat brain; assay type: biochemical; conditions: test concentration of 10 μM
T2 construct: synaptosomes are freshly isolated from areas of the rat brain; from tissue; host or cells: rat brain synaptosomes (P2 fraction)
T2 sequence (P31652 whole entry): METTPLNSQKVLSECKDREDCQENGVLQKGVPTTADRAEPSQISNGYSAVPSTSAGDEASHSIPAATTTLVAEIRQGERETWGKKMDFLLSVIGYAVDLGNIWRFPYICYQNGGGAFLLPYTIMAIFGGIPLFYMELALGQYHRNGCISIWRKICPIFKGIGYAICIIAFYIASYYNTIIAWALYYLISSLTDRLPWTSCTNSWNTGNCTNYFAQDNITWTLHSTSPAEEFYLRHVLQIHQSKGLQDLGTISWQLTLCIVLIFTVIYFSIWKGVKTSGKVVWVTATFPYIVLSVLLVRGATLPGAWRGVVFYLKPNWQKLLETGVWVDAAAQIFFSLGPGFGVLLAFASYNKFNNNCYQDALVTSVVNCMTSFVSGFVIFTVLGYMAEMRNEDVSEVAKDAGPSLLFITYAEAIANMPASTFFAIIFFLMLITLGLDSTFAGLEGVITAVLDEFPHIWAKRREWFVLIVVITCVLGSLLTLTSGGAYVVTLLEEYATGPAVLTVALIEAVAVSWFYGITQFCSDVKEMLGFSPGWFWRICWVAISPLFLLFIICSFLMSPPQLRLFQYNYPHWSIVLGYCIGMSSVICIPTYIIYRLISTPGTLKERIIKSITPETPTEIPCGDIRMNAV
Outline: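 Compounds screened at 10 μM and reported as percent inhibition of serotonin uptake. Uptake measured in a freshly prepared P2 synaptosomal fraction from rat brain.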

| Compound | μ (binding on the μ opioid receptor, % inhibition) (human μ opiate receptor) [%] | 5-HT (inhibition of reuptake of serotonin, % inhibition) [1] [%] |
| --- | --- | --- |
| CN(C)C(c1ccc(F)cc1)C1CCC(CNC(=O)COCCN(C)S(=O)(=O)c2ccc(OC(F)(F)F)cc2)CC1 (centres unmarked) [Example 439] | 50 | 94 |
| CN(C)C(c1cccc(F)c1)C1CCC(CCNC(=O)COC2CCN(S(=O)(=O)c3ccc(F)cc3)C2)CC1 (centres unmarked) [Example 407] | 54 | 95 |
| CN(C)C(c1cccc(F)c1)C1CCC(NC(=O)COCCN2CCN(S(=O)(=O)c3ccccc3)CC2)CC1 (centres unmarked) [Example 364] | 58 | 95 |
| CN(C)C(c1ccc(F)cc1)C1CCC(CCNC(=O)COCCN(C)S(=O)(=O)c2c(Cl)cc(Cl)cc2Cl)CC1 (centres unmarked) [Example 386] | 63 | 98 |
